By MIC is commonly meant the least concentration at which growth counts as inhibited.

In brackets after ≈: the same amount, converted by molar mass.

For 6 compounds, MIC results are on record in DBAASP.

Among the test systems are Escherichia coli MG1655; Vibrio cholerae; Escherichia coli BL21AI.
What all share (experiment): ≥ marks a high value that may be exact or a test limit, other limits are often not marked, values filed in µg/mL are converted to µM
The subject of experiment [1] is Staphylococcus aureus MTCC 9542.
The subject of experiment [2] is Pseudomonas aeruginosa ATCC 27853.
The subject of experiment [3] is Staphylococcus aureus BCRC 10780.
Experiment [4] deals with Streptococcus pneumoniae BCRC 10794.
Experiment [5] concerns Burkholderia cepacia J2540.
Experiment [6] concerns Listeria monocytogenes LO28.
For experiment [7], the system named is Cronobacter sakazakii DPC 6440.
For experiment [8], the system named is Micrococcus luteus ATCC 10240.

For the compound `CC[C@H](C)[C@@H]1NC(=O)[C@H](CCCCN)NC(=O)[C@@H](NC(=O)[C@H](CC(C)C)NC(=O)[C@@H](NC(=O)[C@H](CCC(N)=O)NC(=O)[C@@H]2CCCN2C(=O)[C@H](CC(C)C)NC(=O)[C@H](Cc2ccccc2)NC(=O)[C@H](CC(N)=O)NC(=O)[C@H](C)NC(=O)[C@H](C)NC(=O)[C@H](CC(C)C)NC(=O)CNC(=O)[C@H](C)N)[C@@H](C)CC)CSSC[C@@H](C(N)=O)NC(=O)[C@H](CCCCN)NC(=O)[C@H](CCCN=C(N)N)NC(=O)[C@H](C)NC1=O` [AGLAANFLPQILCKIARKC], the MIC in experiment [1] was 24.6 µM (≈ 49.9 µg/mL); against Escherichia coli MG1655, 24.6 µM (≈ 49.9 µg/mL); against Vibrio cholerae it was 12.3 µM (≈ 25 µg/mL); in [2], above 49.2 µM.

With `CSCC[C@H](NC(=O)[C@H](C)NC(=O)CNC(=O)[C@H](C)NC(=O)[C@H](Cc1cnc[nH]1)NC(=O)[C@H](Cc1ccccc1)NC(C)=O)C(N)=O` [FHAGAM], the MIC in [3] and in experiment [4] was at least 158 µM in each case.

Consider `CC[C@H](C)[C@H](NC(=O)CNC(=O)[C@H](CCCN=C(N)N)NC(=O)[C@H](CC(C)C)NC(=O)[C@H](Cc1ccccc1)NC(=O)[C@H](CC(=O)O)NC(=O)[C@H](CCCCN)NC(=O)[C@@H](NC(=O)[C@H](CCCN=C(N)N)NC(=O)[C@H](CCC(N)=O)NC(=O)[C@@H](NC(=O)[C@@H](NC(=O)[C@H](CCCN=C(N)N)NC(=O)[C@H](CCCCN)NC(=O)[C@@H](N)Cc1ccccc1)[C@@H](C)CC)C(C)C)[C@@H](C)CC)C(=O)NCC(=O)N[C@@H](CCCCN)C(=O)N[C@@H](Cc1ccccc1)C(=O)N[C@@H](CC(C)C)C(=O)N[C@@H](Cc1cnc[nH]1)C(=O)N[C@@H](CO)C(=O)N[C@@H](C)C(=O)N[C@@H](CCCCN)C(=O)N[C@@H](CCCCN)C(=O)N[C@@H](Cc1ccccc1)C(=O)O` [FKRIVQRIKDFLRGIGKFLHSAKKF], for which the MIC in [5] amounted to 10.3 µM (≈ 31.3 µg/mL).

Take `CC[C@H](C)[C@H](NC(=O)[C@H](Cc1c[nH]c2ccccc12)NC(=O)[C@@H]1CCCN1C(=O)[C@H](CCCCN)NC(=O)[C@H](CCSC)NC(=O)[C@H](C)NC(=O)[C@@H](N)CCCCN)C(=O)N[C@@H](CCC(N)=O)C(=O)N1CCC[C@H]1C(=O)N[C@@H](CCCCN)C(=O)N[C@H](C(=O)N[C@@H](CCCCN)C(=O)N[C@H](C(=O)N[C@H](C(=O)N1CCC[C@H]1C(=O)N[C@@H](Cc1ccc(O)cc1)C(=O)N[C@H](C(=O)N[C@@H](CCCN=C(N)N)C(=O)N[C@@H](Cc1ccc(O)cc1)C(=O)N[C@@H](CC(C)C)C(=O)O)C(C)C)[C@@H](C)CC)C(C)C)[C@@H](C)O` [KAMKPWIQPKTKVIPYVRYL]: the MIC in [6] and in experiment [7] was at least 39.1 µM each time.

In the case of `CC[C@H](C)[C@H](NC(=O)[C@H](CCSC)NC(=O)[C@H](CCCCN)NC(=O)CNC(=O)[C@H](C)NC(=O)[C@H](Cc1cnc[nH]1)NC(=O)[C@H](Cc1ccccc1)NC(=O)[C@H](CC(C)C)NC(=O)CNC(=O)[C@H](CCCCN)NC(C)=O)C(=O)N[C@@H](Cc1cnc[nH]1)C(N)=O` [KGLFHAGKMIH], the MIC in experiment [3] and in experiment [4] was at least 80.7 µM in each case.

For `CC[C@H](C)[C@H](NC(=O)[C@H](CCCN=C(N)N)NC(=O)[C@H](CCCN=C(N)N)NC(=O)[C@@H]1CCCN1C(=O)[C@@H]1CCCN1C(=O)[C@H](Cc1cnc[nH]1)NC(=O)[C@@H]1CCCN1C(=O)[C@H](CCCN=C(N)N)NC(=O)[C@@H]1CCCN1C(=O)[C@H](CC(C)C)NC(=O)[C@H](Cc1ccc(O)cc1)NC(=O)[C@@H]1CCCN1C(=O)[C@@H]1CCCN1C(=O)[C@H](CCCCN)NC(=O)[C@H](CC(=O)O)NC(=O)[C@@H](N)C(C)C)C(=O)N[C@@H](Cc1ccc(O)cc1)C(=O)N[C@@H](CC(N)=O)C(=O)N[C@@H](CC(N)=O)C(=O)N[C@@H](CCCN=C(N)N)C(=O)O` [VDKPPYLPRPHPPRRIYNNR], the MIC came to 12.9 µM (≈ 32 µg/mL) in experiment [8] and 25.7 µM (≈ 64 µg/mL) against Escherichia coli BL21AI.
